Assay results reported in ChEMBL document CHEMBL4622969, “Design and biological evaluation of novel HIV-1 protease inhibitors with isopropanol as P1' ligand to enhance binding with S1' subsite” (Bioorg Med Chem, 2020).

Assays:
[1] = test system: Human immunodeficiency virus 1; test: Antiviral activity against VSV-G pseudotyped darunavir-resistant HIV1 NL4-3 V32I, L33F,I54M and I84V mutant infected in human SUPT1 cells at 100 nM infected with supernatants from virus-infected human 293T cells after 48 hrs by luciferase assay relative to control; assay type: functional
[2] = test system: Human immunodeficiency virus 1; test: Antiviral activity against VSV-G pseudotyped wild type HIV1 NL4-3 infected in human TZM-b1 cells at 100 nM infected with supernatants from virus-infected human SUPT1 cells after 48 hrs by luciferase assay relative to control; assay type: functional
[3] = target: Human immunodeficiency virus type 1 protease (Human immunodeficiency virus 1, UniProt Q72874); test: Inhibition of HIV-1 protease expressed in Escherichia coli using Arg-Glu(EDANS)-Ser-Gln-Asn-Tyr-Pro-Ile-Val-Gln-Lys(DABCYL)-Arg as substrate preincubated for 20 to 30 mins followed by substrate addition by FRET based assay
[4] = test system: Human immunodeficiency virus 1; test: Antiviral activity against VSV-G pseudotyped darunavir-resistant HIV1 NL4-3 harboring V32I, L33F,I54M and I84V mutant infected in human SUPT1 cells at 5 uM infected with supernatants from virus-infected human 293T cells after 48 hrs by luciferase assay relative to control; assay type: functional
[5] = test system: Human immunodeficiency virus 1; test: Antiviral activity against VSV-G pseudotyped wild type HIV1 NL4-3 infected in human TZM-b1 cells at 5 uM infected with supernatants from virus-infected human SUPT1 cells after 48 hrs by luciferase assay relative to control; assay type: functional
[6] = test system: Human immunodeficiency virus 1; test: Resistance index, ratio of antiviral activity against VSV-G pseudotyped wild type HIV1 NL4-3 infected in human TZM-b1 cells infected with supernatants from virus-infected human SUPT1 cells to antiviral activity against darunavir-resistant HIV1 NL4-3 infected in human SUPT1 cells infected with supernatants from virus-infected human 293T cells at 5 uM by luciferase assay; assay type: functional

With `CC(C)CN(C[C@@H](O)[C@H](Cc1ccccc1)NC(=O)O[C@H]1CO[C@H]2OCC[C@H]21)S(=O)(=O)c1ccc(N)cc1` the “inhibition (INH)” value [1] was 59% and the “inhibition (INH)” value [2] was 95%.

In the case of `C[C@H](O)CN(C[C@@H](O)[C@H](Cc1ccccc1)NC(=O)c1cc(O)cc(O)c1)S(=O)(=O)c1ccc([N+](=O)[O-])cc1`, the IC50 [3] is reported as 37.4 nM.

`C[C@H](O)CN(C[C@@H](O)[C@H](Cc1ccccc1)NC(=O)c1ccccc1O)S(=O)(=O)c1ccc(C(F)(F)F)cc1` was tested, and the IC50 [3] was 257 nM.

For `C[C@H](O)CN(C[C@@H](O)[C@H](Cc1ccccc1)NC(=O)c1cc(O)cc(O)c1)S(=O)(=O)c1ccc(C(F)(F)F)cc1`, the IC50 [3] was 27.2 nM.

`C[C@H](O)CN(C[C@@H](O)[C@H](Cc1ccccc1)NC(=O)c1ccc(O)c(O)c1)S(=O)(=O)c1ccc([N+](=O)[O-])cc1` showed an IC50 [3] of 6.56 nM.

`COc1cc(C(=O)N[C@@H](Cc2ccccc2)[C@H](O)CN(C[C@@H](C)O)S(=O)(=O)c2ccc(C(F)(F)F)cc2)cc(OC)c1O` showed an IC50 [3] of 11.8 nM.

Compound `COc1cc(C(=O)N[C@@H](Cc2ccccc2)[C@H](O)CN(C[C@H](C)O)S(=O)(=O)c2ccc(C(F)(F)F)cc2)cc(OC)c1O` has an IC50 [3] of 14 nM.

Work on `C[C@@H](O)CN(C[C@@H](O)[C@H](Cc1ccccc1)NC(=O)c1ccccc1O)S(=O)(=O)c1ccc([N+](=O)[O-])cc1` yielded an IC50 [3] of 9 nM.

`COc1ccc(C(=O)N[C@@H](Cc2ccccc2)[C@H](O)CN(C[C@@H](C)O)S(=O)(=O)c2ccc([N+](=O)[O-])cc2)c(O)c1` was tested, and the IC50 [3] was 625 nM.

Compound `COc1cc(O)c(C(=O)N[C@@H](Cc2ccccc2)[C@H](O)CN(C[C@H](C)O)S(=O)(=O)c2ccc([N+](=O)[O-])cc2)cc1OC` has an IC50 [3] of 1310 nM.

`C[C@@H](O)CN(C[C@@H](O)[C@H](Cc1ccccc1)NC(=O)c1ccc(O)c(O)c1)S(=O)(=O)c1ccc([N+](=O)[O-])cc1` was tested, and the IC50 [3] was 10.3 nM.

`C[C@@H](O)CN(C[C@@H](O)[C@H](Cc1ccccc1)NC(=O)c1ccccc1O)S(=O)(=O)c1ccc(C(F)(F)F)cc1` showed an IC50 [3] of 32.1 nM.

`COc1ccc(C(=O)N[C@@H](Cc2ccccc2)[C@H](O)CN(C[C@@H](C)O)S(=O)(=O)c2ccc(C(F)(F)F)cc2)c(O)c1` gave an IC50 [3] of 427 nM.

In the case of `C[C@H](O)CN(C[C@@H](O)[C@H](Cc1ccccc1)NC(=O)c1ccc(O)cc1O)S(=O)(=O)c1ccc([N+](=O)[O-])cc1`, the IC50 [3] is reported as 47.1 nM.

`COc1cc(C(=O)N[C@@H](Cc2ccccc2)[C@H](O)CN(C[C@@H](C)O)S(=O)(=O)c2ccc([N+](=O)[O-])cc2)cc(OC)c1O` showed an IC50 [3] of 13.1 nM.

Work on `COc1cc(O)c(C(=O)N[C@@H](Cc2ccccc2)[C@H](O)CN(C[C@@H](C)O)S(=O)(=O)c2ccc([N+](=O)[O-])cc2)cc1OC` yielded an IC50 [3] of 102 nM.

In the case of `C[C@@H](O)CN(C[C@@H](O)[C@H](Cc1ccccc1)NC(=O)c1cc(O)cc(O)c1)S(=O)(=O)c1ccc([N+](=O)[O-])cc1`, the “inhibition (INH)” value [4] is reported as 42%, the “inhibition (INH)” value [5] is reported as 58% and the IC50 [3] is reported as 4.83 nM. The “Selectivity Index” value [6] was 1.38.

Work on `COc1cc(O)c(C(=O)N[C@@H](Cc2ccccc2)[C@H](O)CN(C[C@H](C)O)S(=O)(=O)c2ccc(C(F)(F)F)cc2)cc1OC` yielded an IC50 [3] of 284 nM.

With `C[C@H](O)CN(C[C@@H](O)[C@H](Cc1ccccc1)NC(=O)c1ccccc1O)S(=O)(=O)c1ccc([N+](=O)[O-])cc1` the IC50 [3] was 78.2 nM.

For `COc1cc(O)c(C(=O)N[C@@H](Cc2ccccc2)[C@H](O)CN(C[C@@H](C)O)S(=O)(=O)c2ccc(C(F)(F)F)cc2)cc1OC`, the IC50 [3] was 61.4 nM.

`C[C@@H](O)CN(C[C@@H](O)[C@H](Cc1ccccc1)NC(=O)c1ccc(O)c(O)c1)S(=O)(=O)c1ccc(C(F)(F)F)cc1` was tested, and the “inhibition (INH)” value [4] was 46%, the “inhibition (INH)” value [5] was 66% and the IC50 [3] was 1.64 nM. The “Selectivity Index” value [6] was 1.43.

`COc1ccc(C(=O)N[C@@H](Cc2ccccc2)[C@H](O)CN(C[C@H](C)O)S(=O)(=O)c2ccc(C(F)(F)F)cc2)c(O)c1` gave an IC50 [3] of 187 nM.

`C[C@H](O)CN(C[C@@H](O)[C@H](Cc1ccccc1)NC(=O)c1ccc(O)c(O)c1)S(=O)(=O)c1ccc(C(F)(F)F)cc1` gave an IC50 [3] of 6.53 nM.

In the case of `C[C@H](O)CN(C[C@@H](O)[C@H](Cc1ccccc1)NC(=O)c1ccc(O)cc1O)S(=O)(=O)c1ccc(C(F)(F)F)cc1`, the IC50 [3] is reported as 40.6 nM.

`COc1ccc(C(=O)N[C@@H](Cc2ccccc2)[C@H](O)CN(C[C@H](C)O)S(=O)(=O)c2ccc([N+](=O)[O-])cc2)c(O)c1` gave an IC50 [3] of 505 nM.

For `COc1cc(C(=O)N[C@@H](Cc2ccccc2)[C@H](O)CN(C[C@H](C)O)S(=O)(=O)c2ccc([N+](=O)[O-])cc2)cc(OC)c1O`, the IC50 [3] was 75.8 nM.

With `C[C@@H](O)CN(C[C@@H](O)[C@H](Cc1ccccc1)NC(=O)c1cc(O)cc(O)c1)S(=O)(=O)c1ccc(C(F)(F)F)cc1` the “inhibition (INH)” value [4] was 51%, the “inhibition (INH)” value [5] was 76% and the IC50 [3] was 2.33 nM. For the same compound, the “Selectivity Index” value [6] was 1.49.

`C[C@@H](O)CN(C[C@@H](O)[C@H](Cc1ccccc1)NC(=O)c1ccc(O)cc1O)S(=O)(=O)c1ccc(C(F)(F)F)cc1` showed an IC50 [3] of 12.3 nM.

In the case of `C[C@@H](O)CN(C[C@@H](O)[C@H](Cc1ccccc1)NC(=O)c1ccc(O)cc1O)S(=O)(=O)c1ccc([N+](=O)[O-])cc1`, the IC50 [3] is reported as 13.4 nM.
